≈ marks a conversion by molar mass, not a printed value.
Columns and labels:
Bacillus subtilis = experiment: Antimicrobial activity against Bacillus subtilis by cup plate diffusion method; assay type: functional
Priestia megaterium = experiment: Antimicrobial activity against Bacillus megaterium by cup plate diffusion method; assay type: functional
Escherichia coli = experiment: Antimicrobial activity against Escherichia coli by cup plate diffusion method; assay type: functional
Pseudomonas sp. = experiment: Antimicrobial activity against Pseudomonas sp. by cup plate diffusion method; assay type: functional
Candida albicans = experiment: Antimicrobial activity against Candida albicans by cup plate diffusion method; assay type: functional
HT-29 = experiment: Cytotoxicity against human HT-29 cells after 48 hrs by MTT assay; assay type: functional, cell-based; settings: HT-29, 48 h
HeLa = experiment: Cytotoxicity against human HeLa cells after 48 hrs by MTT assay; assay type: functional, cell-based
MCF7 = experiment: Cytotoxicity against human MCF7 cells after 48 hrs by MTT assay; assay type: functional, cell-based; settings: MCF7, 48 h
A549 = experiment: Cytotoxicity against human A549 cells after 48 hrs by MTT assay; assay type: functional, cell-based; settings: A549, 48 h
[1] = Cytotoxicity against human PC3 cells after 48 hrs by MTT assay; assay type: functional, cell-based; settings: PC-3, 48 h

| Compound | MIC (Bacillus subtilis) | MIC (Priestia megaterium) | MIC (Escherichia coli) | MIC (Pseudomonas sp.) | MIC (Candida albicans) | IC50 (HT-29) | IC50 (HeLa) | IC50 (MCF7) | IC50 (A549) | IC50 [1] |
| --- | --- | --- | --- | --- | --- | --- | --- | --- | --- | --- |
| COC(=O)[C@H]1C[C@@H](C(=O)OC)[C@H]2ON=C(c3ccc(Cl)cc3)[C@H]21 | > 100 µg/mL | > 100 µg/mL | > 100 µg/mL | > 100 µg/mL | > 100 µg/mL | > 50 µg/mL | > 50 µg/mL | > 50 µg/mL | > 50 µg/mL | > 50 µg/mL |
| COC(=O)[C@H]1C[C@@H](C(=O)OC)[C@H]2ON=C(c3ccc4ccccc4c3)[C@H]21 | > 100 µg/mL | > 100 µg/mL | > 100 µg/mL | > 100 µg/mL | > 100 µg/mL | > 50 µg/mL | > 50 µg/mL | > 50 µg/mL | > 50 µg/mL | > 50 µg/mL |
| COc1ccc(C2=NO[C@@H]3[C@H](CO)C[C@H](CO)[C@H]23)cc1 | > 100 µg/mL | > 100 µg/mL | > 100 µg/mL | > 100 µg/mL | > 100 µg/mL | > 50 µg/mL | > 50 µg/mL | 23.7 µg/mL (≈ 85.5 µM) | 36.6 µg/mL (≈ 132 µM) | > 50 µg/mL |
| Cc1ccc(C2=NO[C@@H]3[C@H](CO)C[C@H](CO)[C@H]23)cc1 | > 100 µg/mL | > 100 µg/mL | > 100 µg/mL | > 100 µg/mL | > 100 µg/mL | > 50 µg/mL | 26.5 µg/mL (≈ 101 µM) | > 50 µg/mL | > 50 µg/mL | 28 µg/mL (≈ 107 µM) |
| OC[C@@H]1C[C@H](CO)[C@@H]2C(c3ccc(Cl)cc3)=NO[C@H]12 | > 100 µg/mL | > 100 µg/mL | > 100 µg/mL | > 100 µg/mL | > 100 µg/mL | 22.9 µg/mL (≈ 81.3 µM) | > 50 µg/mL | 14.7 µg/mL (≈ 52.2 µM) | > 50 µg/mL | > 50 µg/mL |
| OC[C@@H]1C[C@H](CO)[C@@H]2C(c3ccc(F)cc3)=NO[C@H]12 | > 100 µg/mL | > 100 µg/mL | > 100 µg/mL | > 100 µg/mL | > 100 µg/mL | 17.8 µg/mL (≈ 67.1 µM) | > 50 µg/mL | > 50 µg/mL | 31.1 µg/mL (≈ 117 µM) | > 50 µg/mL |
| N#Cc1ccc(C2=NO[C@H]3[C@@H]2[C@@H](C(=O)O)C[C@H]3C(=O)O)cc1 | > 100 µg/mL | > 100 µg/mL | > 100 µg/mL | > 100 µg/mL | > 100 µg/mL | 30.3 µg/mL (≈ 101 µM) | 33.3 µg/mL (≈ 111 µM) | > 50 µg/mL | > 50 µg/mL | > 50 µg/mL |
| COc1ccc(C2=NO[C@@H]3[C@H](CO)C[C@H](CO)[C@H]23)cc1OC | 46.8 µg/mL (≈ 152 µM) | 46.8 µg/mL (≈ 152 µM) | 0.92 µg/mL (≈ 2.99 µM) | 1.2 µg/mL (≈ 3.9 µM) | 4.6 µg/mL (≈ 15 µM) | > 50 µg/mL | > 50 µg/mL | > 50 µg/mL | > 50 µg/mL | > 50 µg/mL |
| COC(=O)[C@H]1C[C@@H](C(=O)OC)[C@H]2ON=C(c3ccc(C#N)cc3)[C@H]21 | > 100 µg/mL | > 100 µg/mL | > 100 µg/mL | > 100 µg/mL | > 100 µg/mL | > 50 µg/mL | > 50 µg/mL | > 50 µg/mL | > 50 µg/mL | > 50 µg/mL |
| O=C(O)[C@H]1C[C@@H](C(=O)O)[C@H]2ON=C(c3ccc(Br)cc3)[C@H]21 | 10.5 µg/mL (≈ 29.6 µM) | 10.5 µg/mL (≈ 29.6 µM) | 2.2 µg/mL (≈ 6.21 µM) | 22 µg/mL (≈ 62.1 µM) | 8.7 µg/mL (≈ 24.6 µM) | > 50 µg/mL | 45.6 µg/mL (≈ 129 µM) | > 50 µg/mL | > 50 µg/mL | > 50 µg/mL |
| COc1ccc(C2=NO[C@H]3[C@@H]2[C@@H](C(=O)O)C[C@H]3C(=O)O)cc1 | > 100 µg/mL | > 100 µg/mL | > 100 µg/mL | > 100 µg/mL | > 100 µg/mL | > 50 µg/mL | > 50 µg/mL | > 50 µg/mL | > 50 µg/mL | > 50 µg/mL |
| CC1(C)S[C@@H]2[C@H](NC(=O)[C@H](N)c3ccccc3)C(=O)N2[C@H]1C(=O)O [AMPICILLIN] | 25 µg/mL (≈ 71.5 µM) | 25 µg/mL (≈ 71.5 µM) | – | – | – | – | – | – | – | – |
| O=C(O)[C@H]1C[C@@H](C(=O)O)[C@H]2ON=C(c3ccc(Cl)cc3)[C@H]21 | 60 µg/mL (≈ 194 µM) | 30 µg/mL (≈ 96.9 µM) | > 100 µg/mL | > 100 µg/mL | > 100 µg/mL | > 50 µg/mL | 19 µg/mL (≈ 61.3 µM) | 28.5 µg/mL (≈ 92 µM) | 30 µg/mL (≈ 96.9 µM) | > 50 µg/mL |
| COc1cc([C@@H]2c3cc4c(cc3[C@@H](O[C@@H]3O[C@@H]5CO[C@@H](C)O[C@H]5[C@H](O)[C@H]3O)[C@H]3COC(=O)[C@H]23)OCO4)cc(OC)c1O [ETOPOSIDE] | – | – | – | – | – | 4.21 µg/mL (≈ 7.15 µM) | 2.35 µg/mL (≈ 3.99 µM) | 11.9 µg/mL (≈ 20.3 µM) | 8.9 µg/mL (≈ 15.1 µM) | 7.2 µg/mL (≈ 12.2 µM) |
| O=C(O)[C@H]1C[C@@H](C(=O)O)[C@H]2ON=C(c3ccc(F)cc3)[C@H]21 | > 100 µg/mL | > 100 µg/mL | 78 µg/mL (≈ 266 µM) | 7.8 µg/mL (≈ 26.6 µM) | > 100 µg/mL | > 50 µg/mL | > 50 µg/mL | > 50 µg/mL | > 50 µg/mL | > 50 µg/mL |
| OC[C@@H]1C[C@H](CO)[C@@H]2C(c3ccccc3Cl)=NO[C@H]12 | 74.4 µg/mL (≈ 264 µM) | > 100 µg/mL | > 100 µg/mL | > 100 µg/mL | > 100 µg/mL | 33.8 µg/mL (≈ 120 µM) | > 50 µg/mL | > 50 µg/mL | > 50 µg/mL | > 50 µg/mL |
| GENTAMICIN | – | – | 2 µg/mL | 8 µg/mL | – | – | – | – | – | – |
| COC(=O)[C@H]1C[C@@H](C(=O)OC)[C@H]2ON=C(c3ccc(Br)cc3)[C@H]21 | > 100 µg/mL | > 100 µg/mL | > 100 µg/mL | > 100 µg/mL | > 100 µg/mL | > 50 µg/mL | 27.4 µg/mL (≈ 71.7 µM) | > 50 µg/mL | > 50 µg/mL | > 50 µg/mL |
| COC(=O)[C@H]1C[C@@H](C(=O)OC)[C@H]2ON=C(c3ccc(F)cc3)[C@H]21 | > 100 µg/mL | > 100 µg/mL | > 100 µg/mL | > 100 µg/mL | > 100 µg/mL | > 50 µg/mL | 20.1 µg/mL (≈ 62.6 µM) | 39.4 µg/mL (≈ 123 µM) | > 50 µg/mL | > 50 µg/mL |
| C[C@@H]1[C@H](O)[C@@H](C)/C=C/C=C/C=C/C=C/C=C/C=C/C=C/[C@H](O[C@@H]2O[C@H](C)[C@@H](O)[C@H](N)[C@@H]2O)C[C@@H]2O[C@](O)(C[C@@H](O)C[C@@H](O)[C@H](O)CC[C@@H](O)C[C@@H](O)CC(=O)O[C@H]1C)C[C@H](O)[C@H]2C(=O)O [AMPHOTERICIN B] | – | – | – | – | 5 µg/mL (≈ 5.41 µM) | – | – | – | – | – |
| O=C(O)[C@H]1C[C@@H](C(=O)O)[C@H]2ON=C(c3ccc4ccccc4c3)[C@H]21 | > 100 µg/mL | > 100 µg/mL | > 100 µg/mL | > 100 µg/mL | > 100 µg/mL | 29.7 µg/mL (≈ 91.3 µM) | > 50 µg/mL | 31.8 µg/mL (≈ 97.7 µM) | > 50 µg/mL | > 50 µg/mL |
| O=C(O)[C@H]1C[C@@H](C(=O)O)[C@H]2ON=C(c3ccccc3Cl)[C@H]21 | > 100 µg/mL | > 100 µg/mL | > 100 µg/mL | > 100 µg/mL | > 100 µg/mL | > 50 µg/mL | > 50 µg/mL | > 50 µg/mL | > 50 µg/mL | > 50 µg/mL |
| Cc1ccc(C2=NO[C@H]3[C@@H]2[C@@H](C(=O)O)C[C@H]3C(=O)O)cc1 | > 100 µg/mL | > 100 µg/mL | > 100 µg/mL | > 100 µg/mL | > 100 µg/mL | > 50 µg/mL | > 50 µg/mL | > 50 µg/mL | > 50 µg/mL | > 50 µg/mL |
| COC(=O)[C@H]1C[C@@H](C(=O)OC)[C@H]2ON=C(c3ccc(C)cc3)[C@H]21 | > 100 µg/mL | > 100 µg/mL | > 100 µg/mL | > 100 µg/mL | > 100 µg/mL | > 50 µg/mL | > 50 µg/mL | > 50 µg/mL | > 50 µg/mL | > 50 µg/mL |
| COC(=O)[C@H]1C[C@@H](C(=O)OC)[C@H]2ON=C(c3ccc(OC)cc3)[C@H]21 | > 100 µg/mL | > 100 µg/mL | > 100 µg/mL | > 100 µg/mL | > 100 µg/mL | 28.9 µg/mL (≈ 86.7 µM) | > 50 µg/mL | > 50 µg/mL | > 50 µg/mL | > 50 µg/mL |
| N#Cc1ccc(C2=NO[C@@H]3[C@H](CO)C[C@H](CO)[C@H]23)cc1 | 21 µg/mL (≈ 77.1 µM) | 21 µg/mL (≈ 77.1 µM) | 2.1 µg/mL (≈ 7.71 µM) | 2.1 µg/mL (≈ 7.71 µM) | 11 µg/mL (≈ 40.4 µM) | > 50 µg/mL | > 50 µg/mL | > 50 µg/mL | > 50 µg/mL | > 50 µg/mL |
| OC[C@@H]1C[C@H](CO)[C@@H]2C(c3ccc(Br)cc3)=NO[C@H]12 | 48.6 µg/mL (≈ 149 µM) | 48.6 µg/mL (≈ 149 µM) | > 100 µg/mL | > 100 µg/mL | > 100 µg/mL | 37.3 µg/mL (≈ 114 µM) | > 50 µg/mL | > 50 µg/mL | > 50 µg/mL | > 50 µg/mL |
| COC(=O)[C@H]1C[C@@H](C(=O)OC)[C@H]2ON=C(c3ccc(OC)c(OC)c3)[C@H]21 | > 100 µg/mL | > 100 µg/mL | > 100 µg/mL | > 100 µg/mL | > 100 µg/mL | > 50 µg/mL | > 50 µg/mL | > 50 µg/mL | > 50 µg/mL | > 50 µg/mL |
| COc1ccc(C2=NO[C@H]3[C@@H]2[C@@H](C(=O)O)C[C@H]3C(=O)O)cc1OC | > 100 µg/mL | > 100 µg/mL | 88.4 µg/mL (≈ 264 µM) | 44.2 µg/mL (≈ 132 µM) | 81.6 µg/mL (≈ 243 µM) | 40.6 µg/mL (≈ 121 µM) | > 50 µg/mL | > 50 µg/mL | > 50 µg/mL | > 50 µg/mL |
| COC(=O)[C@H]1C[C@@H](C(=O)OC)[C@H]2ON=C(c3ccccc3Cl)[C@H]21 | > 100 µg/mL | > 100 µg/mL | > 100 µg/mL | > 100 µg/mL | > 100 µg/mL | > 50 µg/mL | > 50 µg/mL | > 50 µg/mL | > 50 µg/mL | > 50 µg/mL |
